# From ChEMBL document CHEMBL1201861, “Genomics of Drug Sensitity in Cancer screening data, Wellcome Trust Sanger Institute”
# Legend:
# UACC-812 = test: cells; assay type: functional, cell-based, Homo sapiens; conditions: Homo sapiens, UACC-812
# Description: SANGER: Inhibition of human UACC-812 cell growth in a cell viability assay.
# NCI-H1882 = test: cells; assay type: functional, cell-based, Homo sapiens; conditions: Homo sapiens, NCI-H1882;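 note: growth inhibition of the cell line, determined with a viability assay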
# Description: SANGER: Inhibition of human NCI-H1882 cell growth in a cell viability assay.
# NB14 = test: cells; assay type: functional, cell-based, Homo sapiens; conditions: Homo sapiens, NB14;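 note: growth inhibition of NB14 cells measured with a cell viability assay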
# Description: SANGER: Inhibition of human NB14 cell growth in a cell viability assay.
# HCC1599 = test: cells; assay type: functional, cell-based, Homo sapiens; conditions: Homo sapiens, HCC1599;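 note: growth inhibition of HCC1599 cells, read out in a cell viability assay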
# Description: SANGER: Inhibition of human HCC1599 cell growth in a cell viability assay.
# DG-75 = test: cells; assay type: functional, cell-based, Homo sapiens; conditions: Homo sapiens, DG-75;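 note: growth inhibition of DG-75 cells, read out with a cell viability assay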
# Description: SANGER: Inhibition of human DG-75 cell growth in a cell viability assay.
# REH = test: cells; assay type: functional, cell-based, Homo sapiens; conditions: Homo sapiens, REH;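 note: growth inhibition of REH cells determined with a cell viability read-out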
# Description: SANGER: Inhibition of human REH cell growth in a cell viability assay.
# BL-41 = test: cells; assay type: functional, cell-based, Homo sapiens; conditions: Homo sapiens, BL-41;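 note: growth inhibition of human BL-41 cells, read out with a cell viability assay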
# Description: SANGER: Inhibition of human BL-41 cell growth in a cell viability assay.
# MHH-CALL-2 = test: cells; assay type: functional, cell-based, Homo sapiens; conditions: Homo sapiens, MHH-CALL-2;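 note: growth inhibition of the cell line, read out in a cell viability assay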
# Description: SANGER: Inhibition of human MHH-CALL-2 cell growth in a cell viability assay.
# PF-382 = test: cells; assay type: functional, cell-based, Homo sapiens; conditions: Homo sapiens, PF-382
# Description: SANGER: Inhibition of human PF-382 cell growth in a cell viability assay.
# KARPAS-422 = test: cells; assay type: functional, cell-based, Homo sapiens; conditions: Homo sapiens, KARPAS-422
# Description: SANGER: Inhibition of human KARPAS-422 cell growth in a cell viability assay.
# LP-1 = test: cells; assay type: functional, cell-based, Homo sapiens; conditions: Homo sapiens, LP-1;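 note: growth inhibition of human LP-1 cells, with the read-out taken from a cell viability assay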
# Description: SANGER: Inhibition of human LP-1 cell growth in a cell viability assay.
# ST486 = test: SANGER: Inhibition of human ST486 cell growth in a cell viability assay.; assay type: functional, cell-based; conditions: Homo sapiens, ST486
# Raji = test: cells; assay type: functional, cell-based, Homo sapiens; conditions: Homo sapiens, Raji;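 note: cell viability assay measuring inhibition of Raji cell growth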
# Description: SANGER: Inhibition of human Raji cell growth in a cell viability assay.
# NCI-H1417 = test: cells; assay type: functional, cell-based, Homo sapiens; conditions: Homo sapiens, NCI-H1417;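 note: human NCI-H1417 cells, growth inhibition determined with a cell viability readout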
# Description: SANGER: Inhibition of human NCI-H1417 cell growth in a cell viability assay.
# NCI-H2196 = test: cells; assay type: functional, cell-based, Homo sapiens; conditions: Homo sapiens, NCI-H2196;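 note: cell viability assay used as the readout of growth inhibition in NCI-H2196 cells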
# Description: SANGER: Inhibition of human NCI-H2196 cell growth in a cell viability assay.
# SR = test: cells; assay type: functional, cell-based, Homo sapiens; conditions: Homo sapiens, SR
# Description: SANGER: Inhibition of human SR cell growth in a cell viability assay.
# MDA-MB-134-VI = test: cells; assay type: functional, cell-based, Homo sapiens; conditions: Homo sapiens, MDA-MB-134-VI
# Description: SANGER: Inhibition of human MDA-MB-134-VI cell growth in a cell viability assay.
# NCI-H1436 = test: cells; assay type: functional, cell-based, Homo sapiens; conditions: Homo sapiens, NCI-H1436;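 note: growth suppression of human NCI-H1436 cells, determined with a cell viability readout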
# Description: SANGER: Inhibition of human NCI-H1436 cell growth in a cell viability assay.
# COR-L279 = test: SANGER: Inhibition of human COR-L279 cell growth in a cell viability assay.; assay type: functional, cell-based; conditions: Homo sapiens, COR-L279
# K052 = test: cells; assay type: functional, cell-based, Homo sapiens; conditions: Homo sapiens, K052;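 note: Read-out from a cell viability assay, IC50 reflecting suppression of K052 cell growth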
# Description: SANGER: Inhibition of human K052 cell growth in a cell viability assay.
Compound,IC50 (UACC-812),IC50 (NCI-H1882),IC50 (NB14),IC50 (HCC1599),IC50 (DG-75),IC50 (REH),IC50 (BL-41),IC50 (MHH-CALL-2),IC50 (PF-382),IC50 (KARPAS-422),IC50 (LP-1),IC50 (ST486),IC50 (Raji),IC50 (NCI-H1417),IC50 (NCI-H2196),IC50 (SR),IC50 (MDA-MB-134-VI),IC50 (NCI-H1436),IC50 (COR-L279),IC50 (K052)
C#Cc1cccc(Nc2ncnc3cc(OCCOC)c(OCCOC)cc23)c1 [ERLOTINIB],> 2000 nM,> 2000 nM,> 2000 nM,> 2000 nM,> 2000 nM,> 2000 nM,> 2000 nM,> 2000 nM,> 2000 nM,> 2000 nM,> 2000 nM,> 2000 nM,> 2000 nM,> 2000 nM,> 2000 nM,> 2000 nM,–,–,–,–
COc1cc(-c2nn([C@H]3CC[C@H](N4CCN(C(C)=O)CC4)CC3)c3ncnc(N)c23)ccc1NC(=O)c1cc2ccccc2n1C,–,> 5120 nM,> 5120 nM,> 5120 nM,> 5120 nM,> 5120 nM,1690 nM,> 5120 nM,> 5120 nM,> 5120 nM,> 5120 nM,> 5120 nM,> 5120 nM,> 5120 nM,> 5120 nM,> 5120 nM,> 5120 nM,3190 nM,> 5120 nM,> 5120 nM
CC(=O)O[C@H]1C(=O)[C@@]2(C)[C@H]([C@H](OC(=O)c3ccccc3)[C@]3(O)C[C@H](OC(=O)[C@H](O)[C@@H](NC(=O)c4ccccc4)c4ccccc4)C(C)=C1C3(C)C)[C@]1(OC(C)=O)CO[C@@H]1C[C@@H]2O [PACLITAXEL],–,64.2 nM,> 102 nM,20.2 nM,69 nM,> 102 nM,9.34 nM,35.6 nM,23.8 nM,56.5 nM,> 102 nM,12 nM,> 102 nM,> 102 nM,> 102 nM,10.3 nM,> 102 nM,12.3 nM,9.99 nM,32.5 nM
CCN(CC)CCNC(=O)c1c(C)[nH]c(/C=C2\C(=O)Nc3ccc(F)cc32)c1C [SUNITINIB],–,> 8000 nM,> 8000 nM,> 8000 nM,6430 nM,> 8000 nM,2910 nM,5770 nM,3450 nM,7570 nM,> 8000 nM,6350 nM,> 8000 nM,> 8000 nM,> 8000 nM,1550 nM,> 8000 nM,> 8000 nM,> 8000 nM,2400 nM
COc1cc(N2CCN(C)CC2)ccc1Nc1ncc2c(n1)N(C)c1ccccc1C(=O)N2C,> 8000 nM,> 8000 nM,> 8000 nM,> 8000 nM,5610 nM,> 8000 nM,3650 nM,> 8000 nM,4940 nM,> 8000 nM,> 8000 nM,3490 nM,> 8000 nM,> 8000 nM,> 8000 nM,6480 nM,> 8000 nM,> 8000 nM,7990 nM,6240 nM
COc1cc2ncn(-c3cc(OCc4ccccc4S(C)(=O)=O)c(C#N)s3)c2cc1OC [GSK-319347A],> 5000 nM,> 5000 nM,> 5000 nM,> 5000 nM,> 5000 nM,> 5000 nM,> 5000 nM,> 5000 nM,> 5000 nM,> 5000 nM,> 5000 nM,> 5000 nM,> 5000 nM,> 5000 nM,> 5000 nM,> 5000 nM,> 5000 nM,> 5000 nM,> 5000 nM,> 5000 nM
Cc1ccc(-c2c(C(=O)CCl)n(CCCO)c3ncnc(N)c23)cc1,–,> 4000 nM,> 4000 nM,2170 nM,> 4000 nM,> 4000 nM,> 4000 nM,> 4000 nM,1220 nM,> 4000 nM,> 4000 nM,> 4000 nM,> 4000 nM,> 4000 nM,> 4000 nM,> 4000 nM,> 4000 nM,> 4000 nM,> 4000 nM,> 4000 nM
OCCCNc1cc(-c2ccnc(Nc3cccc(Cl)c3)n2)ccn1,–,> 256 nM,> 256 nM,43.9 nM,111 nM,> 256 nM,33.6 nM,85.5 nM,104 nM,57.2 nM,52.1 nM,31.2 nM,42.1 nM,> 256 nM,112 nM,25.5 nM,> 256 nM,251 nM,171 nM,> 256 nM
CC[C@H](CO)Nc1nc(NCc2ccccc2)c2ncn(C(C)C)c2n1 [SELICICLIB],> 16000 nM,> 16000 nM,> 16000 nM,14600 nM,> 16000 nM,> 16000 nM,> 16000 nM,> 16000 nM,> 16000 nM,9960 nM,> 16000 nM,10400 nM,13800 nM,> 16000 nM,> 16000 nM,> 16000 nM,> 16000 nM,> 16000 nM,12300 nM,–
COc1cc2ncn(-c3cc(OCc4ccccc4C(F)(F)F)c(C(N)=O)s3)c2cc1OC [GW843682X],–,43.7 nM,> 256 nM,18.5 nM,63.3 nM,> 256 nM,10.9 nM,> 256 nM,33.4 nM,210 nM,62.5 nM,20.4 nM,> 256 nM,> 256 nM,> 256 nM,14.5 nM,> 256 nM,> 256 nM,99.2 nM,35.4 nM
N[C@@H](CSC(c1ccccc1)(c1ccccc1)c1ccccc1)C(=O)O [S-TRITYL-L-CYSTEINE],–,2080 nM,> 5120 nM,1230 nM,> 5120 nM,> 5120 nM,1640 nM,> 5120 nM,1670 nM,1200 nM,3110 nM,2090 nM,3600 nM,> 5120 nM,> 5120 nM,718 nM,> 5120 nM,889 nM,2860 nM,971 nM
